From US20250059171A1 (Hoffmann-La Roche Inc., priority 2021, published 2025)

Columns and labels:
[1] = biological target: SARS-CoV-2 3CLpro (Severe acute respiratory syndrome coronavirus 2, UniProt P0DTD1); experiment: biochemical
[2] = biological target: HCoV-229E 3CLpro (Human coronavirus 229E, UniProt P0C6X1); experiment: HCoV-229E 3CLpro inhibition assay (FRET); type: biochemical
[3] = biological target: MERS-CoV 3CLpro (Middle East respiratory syndrome-related coronavirus, UniProt K9N7C7); experiment: biochemical
MERS-CoV 3CLpro, sequence (K9N7C7 3248-3553): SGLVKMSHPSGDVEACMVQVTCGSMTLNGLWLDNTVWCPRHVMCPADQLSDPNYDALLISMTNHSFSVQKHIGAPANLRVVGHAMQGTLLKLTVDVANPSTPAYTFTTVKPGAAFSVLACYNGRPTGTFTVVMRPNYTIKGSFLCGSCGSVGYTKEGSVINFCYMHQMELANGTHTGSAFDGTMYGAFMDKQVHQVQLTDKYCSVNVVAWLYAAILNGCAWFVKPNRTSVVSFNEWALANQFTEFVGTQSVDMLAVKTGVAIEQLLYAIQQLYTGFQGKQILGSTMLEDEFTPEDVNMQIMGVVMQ

[4] = biological target: SARS-CoV 3CLpro (Severe acute respiratory syndrome coronavirus, UniProt P0C6X7); experiment: biochemical

HCoV-229E 3CLpro, sequence (P0C6X1 2966-3267): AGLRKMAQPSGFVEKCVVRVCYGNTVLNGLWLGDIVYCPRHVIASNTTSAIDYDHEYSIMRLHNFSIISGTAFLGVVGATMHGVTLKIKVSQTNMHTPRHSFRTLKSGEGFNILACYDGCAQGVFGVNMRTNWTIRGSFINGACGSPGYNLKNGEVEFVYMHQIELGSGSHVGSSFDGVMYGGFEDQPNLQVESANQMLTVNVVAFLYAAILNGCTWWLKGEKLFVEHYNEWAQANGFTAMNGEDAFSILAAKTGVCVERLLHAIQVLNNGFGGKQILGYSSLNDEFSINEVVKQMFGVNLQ

| Compound | IC50 [1] [nM] | IC50 [2] [nM] | IC50 [3] [nM] | IC50 [4] [nM] |
| --- | --- | --- | --- | --- |
| CC[C@H](C)[C@H](NC(=O)C1(F)CC1)C(=O)N1C[C@@H]2CCC[C@@H]2[C@H]1C(=O)NN(C[C@@H]1CCNC1=O)C(=O)[C@H](F)Cl [Example 79, N-[(1S,2S)-1-[(3S,3aS,6aR)-3-[[[(2R)-2-chloro-2-fluoro-acetyl]-[[(3S)-2-oxopyrrolidin-3-yl]methyl]amino]carbamoyl]-3,3a,4,5,6,6a-hexahydro-1H-cyclopenta[c]pyrrole-2-carbonyl]-2-methyl-butyl]-1-fluoro-cyclopropanecarboxamide] | 7.1 | 39 | 114 | 11 |
| CC[C@H](C)[C@H](NC(=O)c1ccccc1)C(=O)N1C[C@@H]2CCC[C@@H]2[C@H]1C(=O)NN(C[C@@H]1CCNC1=O)C(=O)[C@H](F)Cl [Example 80, N-[(1S,2S)-1-[(3S,3aS,6aR)-3-[[[(2R)-2-chloro-2-fluoro-acetyl]-[[(3S)-2-oxopyrrolidin-3-yl]methyl]amino]carbamoyl]-3,3a,4,5,6,6a-hexahydro-1H-cyclopenta[c]pyrrole-2-carbonyl]-2-methyl-butyl]benzamide] | 10 | 20 | 58 | 11 |
| CC[C@H](C)[C@H](NC(C)=O)C(=O)N1C[C@@H]2CCC[C@@H]2[C@H]1C(=O)NN(C[C@@H]1CCNC1=O)C(=O)[C@H](F)Cl [Example 81, N-[(1S,2S)-1-[(3S,3aS,6aR)-3-[[[(2R)-2-chloro-2-fluoro-acetyl]-[[(3S)-2-oxopyrrolidin-3-yl]methyl]amino]carbamoyl]-3,3a,4,5,6,6a-hexahydro-1H-cyclopenta[c]pyrrole-2-carbonyl]-2-methyl-butyl]acetamide] | 9 | 45 | 93 | 15 |
| CC(C)(C)[C@H](NC(=O)C1(F)CC1)C(=O)N1C[C@@H]2CCC[C@@H]2[C@H]1C(=O)NN(C[C@@H]1CCNC1=O)C(=O)[C@H](F)Cl [Example 82, N-[(1S)-1-[(3S,3aS,6aR)-3-[[[(2R)-2-chloro-2-fluoro-acetyl]-[[(3S)-2-oxopyrrolidin-3-yl]methyl]amino]carbamoyl]-3,3a,4,5,6,6a-hexahydro-1H-cyclopenta[c]pyrrole-2-carbonyl]-2,2-dimethyl-propyl]-1-fluoro-cyclopropanecarboxamide] | 8 | 33 | 84 | 12 |
| CC(C)(C)[C@H](NC(=O)C1(F)CC1)C(=O)N1C[C@H]2[C@@H]([C@H]1C(=O)NN(C[C@@H]1CCNC1=O)C(=O)[C@H](F)Cl)C2(C)C [Example 83, N-[(1S)-1-[(1R,2S,5S)-2-[[[(2R)-2-chloro-2-fluoro-acetyl]-[[(3S)-2-oxopyrrolidin-3-yl]methyl]amino]carbamoyl]-6,6-dimethyl-3-azabicyclo[3.1.0]hexane-3-carbonyl]-2,2-dimethyl-propyl]-1-fluoro-cyclopropanecarboxamide] | 9 | 31 | 97 | 10 |
| CC(F)(F)C(=O)N[C@H](C(=O)N1C[C@H]2[C@@H]([C@H]1C(=O)NN(C[C@@H]1CCNC1=O)C(=O)[C@@H](F)Cl)C2(C)C)C(C)(C)C [Example 85, N-[(1S)-1-[(1R,2S,5S)-2-[[[(2S)-2-chloro-2-fluoro-acetyl]-[[(3S)-2-oxopyrrolidin-3-yl]methyl]amino]carbamoyl]-6,6-dimethyl-3-azabicyclo[3.1.0]hexane-3-carbonyl]-2,2-dimethyl-propyl]-2,2-difluoro-propanamide] | 12 | 21 | 69 | 12 |
| CCC(C)(C)[C@H](NC(=O)C(F)(F)F)C(=O)N1C[C@H]2[C@@H]([C@H]1C(=O)NN(C[C@@H]1CCNC1=O)C(=O)[C@H](F)Cl)C2(C)C [Example 86, N-[(1S)-1-[(1R,2S,5S)-2-[[[(2R)-2-chloro-2-fluoro-acetyl]-[[(3S)-2-oxopyrrolidin-3-yl]methyl]amino]carbamoyl]-6,6-dimethyl-3-azabicyclo[3.1.0]hexane-3-carbonyl]-2,2-dimethyl-butyl]-2,2,2-trifluoro-acetamide] | 7 | 35 | 86 | 19 |
| CC(C)(C)[C@H](NC(=O)C(F)(F)F)C(=O)N1C[C@H]2[C@@H]([C@H]1C(=O)NN(CCC(N)=O)C(=O)[C@H](F)Cl)C2(C)C [Example 87, 3-[[(2R)-2-chloro-2-fluoro-acetyl]-[[(1R,2S,5S)-3-[(2S)-3,3-dimethyl-2-[(2,2,2-trifluoroacetyl)amino]butanoyl]-6,6-dimethyl-3-azabicyclo[3.1.0]hexane-2-carbonyl]amino]amino]propanamide] | 14 | 19 | 73 | 9.3 |
| CC(C)(C)[C@H](NC(=O)C1CC(F)(F)C1)C(=O)N1C[C@H]2[C@@H]([C@H]1C(=O)NN(C[C@@H]1CCNC1=O)C(=O)[C@H](F)Cl)C2(C)C [Example 90, N-[(1S)-1-[(1R,2S,5S)-2-[[[(2R)-2-chloro-2-fluoro-acetyl]-[[(3S)-2-oxopyrrolidin-3-yl]methyl]amino]carbamoyl]-6,6-dimethyl-3-azabicyclo[3.1.0]hexane-3-carbonyl]-2,2-dimethyl-propyl]-3,3-difluoro-cyclobutanecarboxamide] | 10 | 22 | 55 | 12 |
| CC(C)(C)[C@H](NC(=O)C1(F)CCC1)C(=O)N1C[C@H]2[C@@H]([C@H]1C(=O)NN(C[C@@H]1CCNC1=O)C(=O)[C@H](F)Cl)C2(C)C [Example 91, N-[(1S)-1-[(1R,2S,5S)-2-[[[(2R)-2-chloro-2-fluoro-acetyl]-[[(3S)-2-oxopyrrolidin-3-yl]methyl]amino]carbamoyl]-6,6-dimethyl-3-azabicyclo[3.1.0]hexane-3-carbonyl]-2,2-dimethyl-propyl]-1-fluoro-cyclobutanecarboxamide] | 12 | 39 | 115 | 15 |
| CC(C)(C)[C@H](NC(=O)[C@@H]1CC1(F)F)C(=O)N1C[C@H]2[C@@H]([C@H]1C(=O)NN(C[C@@H]1CCNC1=O)C(=O)[C@H](F)Cl)C2(C)C [Example 92, (1S)—N-[(1S)-1-[(1R,2S,5S)-2-[[[(2R)-2-chloro-2-fluoro-acetyl]-[[(3S)-2-oxopyrrolidin-3-yl]methyl]amino]carbamoyl]-6,6-dimethyl-3-azabicyclo[3.1.0]hexane-3-carbonyl]-2,2-dimethyl-propyl]-2,2-difluoro-cyclopropanecarboxamide] | 8 | 23 | 57 | 18 |
| CC(C)(C)[C@H](NC(=O)C1CC(F)(F)C1)C(=O)N1C[C@H]2[C@@H]([C@H]1C(=O)NN(C[C@@H]1CCNC1=O)C(=O)[C@@H](F)Cl)C2(C)C [Example 93, N-[(1S)-1-[(1R,2S,5S)-2-[[[(2S)-2-chloro-2-fluoro-acetyl]-[[(3S)-2-oxopyrrolidin-3-yl]methyl]amino]carbamoyl]-6,6-dimethyl-3-azabicyclo[3.1.0]hexane-3-carbonyl]-2,2-dimethyl-propyl]-3,3-difluoro-cyclobutanecarboxamide] | 31 | 42 | 94 | 54 |
| CC(C)(C)[C@H](NC(=O)C1(F)CC1)C(=O)N1C[C@H]2[C@@H]([C@H]1C(=O)NN(C[C@@H]1CCNC1=O)C(=O)[C@@H](F)Cl)C2(C)C [Example 94, N-[(1S)-1-[(1R,2S,5S)-2-[[[(2S)-2-chloro-2-fluoro-acetyl]-[[(3S)-2-oxopyrrolidin-3-yl]methyl]amino]carbamoyl]-6,6-dimethyl-3-azabicyclo[3.1.0]hexane-3-carbonyl]-2,2-dimethyl-propyl]-1-fluoro-cyclopropanecarboxamide] | 21 | 59 | 136 | 29 |
| CC(C)(C)[C@H](NC(=O)[C@@H]1CC1(F)F)C(=O)N1C[C@H]2[C@@H]([C@H]1C(=O)NN(C[C@@H]1CCNC1=O)C(=O)[C@@H](F)Cl)C2(C)C [Example 95, (1S)—N-[(1S)-1-[(1R,2S,5S)-2-[[[(2S)-2-chloro-2-fluoro-acetyl]-[[(3S)-2-oxopyrrolidin-3-yl]methyl]amino]carbamoyl]-6,6-dimethyl-3-azabicyclo[3.1.0]hexane-3-carbonyl]-2,2-dimethyl-propyl]-2,2-difluoro-cyclopropanecarboxamide] | 10 | 28 | 71 | 14 |
| CC(C)(C)[C@H](NC(=O)[C@H]1CC1(F)F)C(=O)N1C[C@H]2[C@@H]([C@H]1C(=O)NN(C[C@@H]1CCNC1=O)C(=O)[C@@H](F)Cl)C2(C)C [Example 96, (1R)—N-[(1S)-1-[(1R,2S,5S)-2-[[[(2S)-2-chloro-2-fluoro-acetyl]-[[(3S)-2-oxopyrrolidin-3-yl]methyl]amino]carbamoyl]-6,6-dimethyl-3-azabicyclo[3.1.0]hexane-3-carbonyl]-2,2-dimethyl-propyl]-2,2-difluoro-cyclopropanecarboxamide] | 11 | 25 | 63 | 14 |
| CC(C)(C)[C@H](NC(=O)C1(F)CCC1)C(=O)N1C[C@@H]2CCC[C@@H]2[C@H]1C(=O)NN(C[C@@H]1CCNC1=O)C(=O)[C@H](F)Cl [Example 97, N-[(1S)-1-[(3S,3aS,6aR)-3-[[[(2R)-2-chloro-2-fluoro-acetyl]-[[(3S)-2-oxopyrrolidin-3-yl]methyl]amino]carbamoyl]-3,3a,4,5,6,6a-hexahydro-1H-cyclopenta[c]pyrrole-2-carbonyl]-2,2-dimethyl-propyl]-1-fluoro-cyclobutanecarboxamide] | 11 | 74 | 208 | 13 |
